Data: article PMC11302339, “A series of pyrimidine-based antifungals with anti-mold activity disrupt ER function in Aspergillus fumigatus” (Microbiology Spectrum, 2024)
≈ marks a conversion by molar mass, not a printed value. Marks after values point to notes of the source that are not given here.

Legend:
[1] = system: S. cerevisiae heterozygous mutants; test: Chemical haploinsufficiency screen and spot dilution validation; assay type: cell-based; details: Saccharomyces cerevisiae, read-out: inhibition of wild-type growth
A. niger = test: MIC testing (CLSI broth dilution); assay type: cell-based, Aspergillus niger; details: strain S007, clinical isolate; no clear well, growth reduced by ≥50% at MEC
Experimental: MICs were determined using Clinical and Laboratory Standards Institute guidelines ([48], [49]). All yeasts were cultured overnight in 3 mL YPD at 30°C, then washed twice in sterile phosphate-buffered saline (PBS). Twofold serial dilutions of each drug were prepared in RMPI + MOPS, then 1 × 10^3 cells were added per well. For mold species, wells were inoculated with 1.25 × 10^3 conidia per well. Plates were incubated at 37°C for 24 (Candida spp. and S. cerevisiae), 48 (Aspergillus spp., M. circinelloides, S. apiospermum, and L. prolificans), or 72 (C. neoformans and F. oxysporum) hours. S. cerevisiae BY4743 MICs were tested in YPD due to nutritional requirements of this strain. Each assay was performed in technical duplicate in at least two independent experiments performed on different days.

Hog1 = test: Western blotting for total and phosphorylated Hog1; assay type: cell-based, Cryptococcus neoformans
Experimental: C. neoformans H99 overnight cultures were diluted to OD = 0.1 in YPD and incubated at 30°C for 3 hours with shaking. Cultures were split into four subcultures and treated with DMSO or 1 µg/mL 1 (two each) for 2 hours at 30°C, then water or 1 M NaCl was added to one culture of each treatment and incubated for an additional 30 min at 30°C. Cell pellets were snap frozen and stored at −80°C. Protein was extracted in extraction buffer (10 mM HEPES, pH 7.4–7.9, 1.5 mM MgCl2, 10 mM KCl, 1 mM DTT, 1× HALT protease and phosphatase inhibitor cocktail) by bead beading for 30 s on 60 s off with incubation on ice five times. The supernatant was removed from glass beads, and protein concentration was quantified by Bradford protein assay. Twenty micrograms of protein was loaded on a 10% SDS-PAGE gel and run at 80 V. Samples were transferred to nitrocellulose membrane for 1 hour at 100 V, then the membrane was stained with Ponceau for 15 min at RT. Membranes were blocked with 5% bovine serum albumin (BSA) in Tris-buffered saline with Tween 20 (TBST) for 1 hour at room temperature, then incubated with 1:10,000 rabbit anti-p-p38 (Phospho-p38 MAPK, # 9211; Cell Signaling) in 5% BSA/TBST or 1:5,000 custom Hog1 antibody # R02361 (GenScript) overnight at 4°C. […]

A. fumigatus ∆ireA = test: Susceptibility of ∆ireA mutant on GMM plates; assay type: cell-based, Aspergillus fumigatus; details: 72 hours at 30°C, colony diameter ratio
Experimental: For Aspergillus fumigatus, 5 µL of 1 × 10^4 CEA10 conidia was spotted at the center of GMM plates containing DMSO or 1 µg/mL 1 in combination with DTT, brefeldin A, or tunicamycin. Plates were incubated at 37°C for 72 hours. Representative images of two independent experiments with three biological replicates each were obtained. For Ire1 strains, the cells were prepared as described above but were incubated at 30°C.

C. neoformans H99 = test: ER stress interactions on YPD plates; assay type: cell-based, Cryptococcus neoformans; details: 4 µg/mL 1 on YPD
Experimental: To determine interactions of 1 with ER stress in Cryptococcus neoformans, an overnight culture of H99 was diluted to 1 × 10^6 CFU/mL, then three 10-fold dilutions were prepared. Three-microliter spots of each cell dilution were plated in triplicate on YPD containing DMSO or 4 µg/mL 1 in combination with DTT, brefeldin A, or tunicamycin. Plates were incubated at 37°C for 72 hours. Images are representative of two independent experiments performed in biological triplicate.

A. fumigatus biofilms = test: A. fumigatus hyphal (biofilm) activity, resazurin; assay type: cell-based, Aspergillus fumigatus; details: conidia germinated 14 hours
Experimental: To determine antifungal activity against A. fumigatus hyphae, a 96-well plate was inoculated with 1 × 10^3 conidia per well in 100 µL RPMI + MOPS with the edge wells filled with 200 µL sterile water to minimize edge effects. Plates were incubated at 37°C for 14 hours. A twofold dilution series of 1 or 7 was prepared in RPMI + MOPS at 2× concentration with 0.002% resazurin, then 100 µL of the drug was added to wells, and plates were incubated for an additional 24 hours. Fluorescence was measured with an excitation wavelength of 570 nm and an emission wavelength of 615 nm. Data are representative of two independent experiments performed in biological triplicate.

[2] = system: A. fumigatus CEA10 hyphae; test: Propidium iodide viability staining of treated hyphae; assay type: cell-based, Aspergillus fumigatus
Experimental: For PI staining of 1-treated hyphae, 0.5 × 10^3conidia/mL in 100 µL RPMI + MOPS were inoculated into chambers of an eight-well chamber slide and incubated at 37°C for 14 hours. 100 µL of media containing a 2× concentration of 1 or an equivalent amount of DMSO was added to each chamber, and slides were incubated for an additional 24 hours. Media were removed from chambers, replaced with PBS + 40 µM propidium iodide (Invitrogen, Cat # P3566), then slides were incubated at room temperature for 20 min in the dark. Images were acquired on a Nikon epifluorescence microscope with a Nikon DS-Fi1 camera and Nikon Elements image acquisition and analysis software. Images were processed equally with linear brightness and contrast adjustments in Photoshop, only to increase ease of viewing. Representative images of two independent experiments are shown with two biological replicates each.

[3] = Protein binding analysis, brain; assay type: in vitro ADME

In the case of `OC1CC(c2cc(N3CCC(CCc4ccccc4)CC3)ncn2)C1` (stereo not shown) [compound 1], the inhibition at 32 µg/mL [1] is reported as roughly 50%, the “Minimum effective concentration (MEC)” value (A. niger) is reported as 16^b µg/mL and the Hog1 phosphorylation (Hog1; 1 µg/mL 1 alone for 2 hours at 30°C) is reported as “activation of Hog1 via phosphorylation”. For the same molecule, the “Hog1 phosphorylation, combination with salt” value (Hog1; 1 µg/mL 1 for 2 hours, then 1 M NaCl 30 min) was “additive”, the “susceptibility of ∆ireA mutant vs wild type” value (A. fumigatus ∆ireA) was “same susceptibility as wild type” and the interaction with tunicamycin (C. neoformans H99; 0.125 µg/mL tunicamycin) was “antagonistic”. For the same molecule, the interaction with tunicamycin (C. neoformans H99; 0.25 µg/mL tunicamycin) was “additive”, the “interaction with DTT” value (C. neoformans H99; 37°C, 72 hours) was “synergistic” and the “interaction with brefeldin A” value (C. neoformans H99; 37°C, 72 hours) was “synergistic”. The IC50 (A. fumigatus biofilms; Aspergillus fumigatus, then treated 24 hours, read-out: IC50 of hyphal growth) was 1.66 mg/L (≈ 4.92 µM), the “inhibition of hyphal growth” value (A. fumigatus biofilms; escalating doses 24 hours) was “dose-dependent inhibition of hyphal growth” and the “propidium iodide staining of hyphae” value ([2]; 8 µg/mL for 24 hours after 14 hours germination) was “did not show increased staining relative to vehicle-treated controls”. The “propidium iodide staining of hyphae” value ([2]; 32 µg/mL for 24 hours after 14 hours germination) was “stained brightly”, the “type of activity against biofilms” value ([2]; at concentrations 2× the MIC) was “fungicidal” and the fraction unbound at 6 h, 5 µM ([3]; read-out: Corrected % Protein binding (converted)) was 0.0112. The fraction unbound ([3]; uncorrected) was 0.1.
